Laboratory results published in patent US7915302B2, “Crystal forms of pyrrolylheptanoic acid derivatives” (Dong-A Pharm. Co., Ltd., priority 2007, dated 2011).

Assay: Stability Identification-Content Measurement (HPLC content after storage in HDPE bottle)
Assay type: physicochemical
Procedure: 80 mg of the novel crystalline form of the compound prepared in Example 2 and 80 mg of a standard product with a purity of 99.9% prepared by the process described in Example 2 were accurately weighed, placed in 100 ml volumetric flasks, and dissolved in dimethylformamide. The volumes of the solutions were adjusted to the marked lines of the flasks to prepare test solutions and standard solutions, respectively. Each of the solutions was analyzed by column chromatography under the following conditions: • Column: Zorbax Rx C8 (4.6 mm×250 mm, 5 μm) or its equivalent • Mobile Phase (0.05 M ammonium acetate buffer (pH=5.0)/acetonitrile/tetrahydrofuran) Mobile Phase A: • 0.05 M ammonium acetate buffer (pH=5.0)/acetonitrile/tetrahydrofuran (67/21/12) Mobile Phase B: • 0.05M ammonium acetate buffer (pH=5.0)/acetonitrile/tetrahydrofuran (54/34/12) • Detector: UV absorption spectrophotometer (wavelength: 244 nm) • Flow Rate: 1.0 mL/min. • Column Temperature: 35±2° C. • Storage: in HDPE bottle
The contents of the compound prepared in Example 2 were quantified by the area under each peak. Variations in the content of the compound were evaluated at room temperature, in a freezer, under accelerated storage conditions and under extreme storage conditions over the periods indicated in Table 6, and the results are shown in Table 6.

Which “content of the compound” value (40° C./75% RH (accelerated storage), 1 month) does the source give for “[R—(R*,R*)]-2-(4-fluorophenyl)-β,δ-dihydroxy-5-(1-methylethyl)-3-phenyl-4-[(phenylamino)carbonyl]-1H-pyrrole-1-heptanoic acid hemicalcium salt [Example 2]” here?
Its value is 98.82%.

And the “content of the compound” value (40° C./75% RH (accelerated storage), 2 months)?
Its value is 98.33%.

What about the “content of the compound” value (40° C./75% RH (accelerated storage), 3 months) of the same substance?
Its value is 98.03%.

What about the “content of the compound” value (60° C./Dry (extreme storage), 1 month) of the same substance?
Its value is 98.01%.

What about the “content of the compound” value (at room temp., 1 month) of the same substance?
The value was 98.72%.

And the “content of the compound” value (at room temp., 2 months)?
Its value is 98.58%.

And the “content of the compound” value (at room temp., 3 months)?
The value was 98.12%.

And the “content of the compound” value (at room temp., 6 months)?
Its value is 98.56%.

What about the “content of the compound” value (in freezer, 1 month) of the same substance?
Its value is 99.74%.

And the “content of the compound” value (in freezer, 2 months)?
Its value is 99.31%.

What about the “content of the compound” value (in freezer, 3 months) of the same substance?
Its value is 100.19%.

And the “content of the compound” value (in freezer, 6 months)?
Its value is 98.11%.
